Test results published in US20100113484A1, “TREATING AGENT OF UROPATHY” (ASKA PHARMACEUTICAL CO., LTD., priority 2006, published 2010).
pIC50: −log10 of the molar value. Like-named read-outs stand apart in the source and are kept apart here.

Columns and labels:
[1] = biological target: T1, human recombinant PDE9 protein (Homo sapiens, UniProt O76083); experiment: Measurement of PDE9-inhibiting activity ([3H]-cGMP hydrolysis); assay type: biochemical
T1 construct: made in house; host or cells: COS-1 cells, transient transfection with pcDNA 3.1 (+); supernatant of the homogenate, not purified
T1 sequence (O76083 whole entry): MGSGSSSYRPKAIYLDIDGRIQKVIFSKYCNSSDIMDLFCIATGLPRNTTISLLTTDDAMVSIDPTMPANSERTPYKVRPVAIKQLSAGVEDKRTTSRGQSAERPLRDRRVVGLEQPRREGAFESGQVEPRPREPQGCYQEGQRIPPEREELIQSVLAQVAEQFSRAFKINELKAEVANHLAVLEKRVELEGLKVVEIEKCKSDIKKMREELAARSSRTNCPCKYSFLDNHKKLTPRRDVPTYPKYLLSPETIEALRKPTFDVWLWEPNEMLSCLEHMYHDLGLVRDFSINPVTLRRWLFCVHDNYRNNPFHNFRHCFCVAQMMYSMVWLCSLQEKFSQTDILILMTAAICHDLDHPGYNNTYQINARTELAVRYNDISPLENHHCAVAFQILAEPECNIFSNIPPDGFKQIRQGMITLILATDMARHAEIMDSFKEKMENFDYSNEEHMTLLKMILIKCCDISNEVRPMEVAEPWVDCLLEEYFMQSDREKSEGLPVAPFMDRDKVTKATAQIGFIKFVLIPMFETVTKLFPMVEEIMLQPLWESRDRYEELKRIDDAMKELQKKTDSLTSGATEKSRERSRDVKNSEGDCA
Experimental: Based on the base sequence of hsPDE9A1 registered with GenBank database (accession No.: AF048837), hsPDE9A1 fragment was amplified by polymerase chain reaction under the following conditions, using the following sequence (Amasham Pharmacia Biotech) as the primer and Human Prostate […] cDNA library (CLONTECH) as the template DNA, with Pfu Turbo DNA polymerase ([…]):
PCR condition: [95° C., 5 min]×1 cycle, [(95° C., 1 min), (58° C., 2 min), (72° C., 3 min)]×25 cycles, [72° C., 10 min]×1 cycle
Thus obtained hsPDE9A1 fragment was given a restricted enzymatic treatment with NheI and NotI, and thereafter inserted into pcDNA 3.1 (+) expression vector (Invitrogen) to let it serve as a human PDE9 expression vector.
(§1) Human PDE9 expression vector-transformed Escherichia coli was mass incubated to produce a large amount of human PDE9 expression vector, which was transiently transfected into COS-1 cells, with LIPOFECTAMINE 2000 Reagent (GIBCO). The cells were homogenized in ice-cooled buffer A (40 mmol/L Tris-HCl, pH7.5, 15 mmol/L benzamidine, 15 mmol/L 2-mercaptoethanol, 1 μg/mL Pepstatin A, 1 μg/mL Leupeptin, 5 mmol/L EDTA) and centrifuged at 4° C., 14,000×g for 10 minutes. The supernatant was isolated to provide human recombinant PDE9 protein solution.
This mixed solution was incubated at 30° C. for 30 minutes and the enzymatic reaction of PDE9 was terminated by heating the system in boiling water for 90 seconds. Returning the system to room temperature, 50 μL of Snake venom (SIGMA: 1 mg/mL) was added, followed by 10 minutes' incubation at 30° C., to convert the [^3H]-5′-GMP produced in the previous reaction to [^3H]-guanosine. […] Thereafter [^3H]-guanosine was eluted with 3 mL of 3 mol/L aqueous ammonia and its radiation activity was measured with liquid scintillation counter.
PDE9 inhibition of the tested compound can be calculated by the following formula: […]
From the percent inhibition at various concentration levels of each tested compound, its IC50 value against PDE9 can be determined.

[2] = biological target: T2, human recombinant PDE5 protein (Homo sapiens, UniProt O76074); experiment: Measurement of PDE5-inhibiting activity; assay type: biochemical; conditions: Tables A and C; read-out: Inhibiting Activity (IC50 value) PDE5
T2 construct: made in house; host or cells: COS-1 cells, transient transfection with pcDNA 3.1 (+); supernatant of the homogenate, not purified
Experimental: PCR condition: [94° C., 2 min]×1 cycle, [(94° C., 30 sec), (65° C., 30 sec), (68° C., 3 min)]×25 cycles, [68° C., 6 min]×1 cycle
Thus obtained hsPDE5A1 fragment was given a restricted enzymatic treatment with XBaI and EcoRI, and thereafter inserted into pcDNA 3.1 (+) expression vector (Invitrogen) to let it serve as a human PDE5 expression vector.
as §1, with “PDE5” for “PDE9”, “A” for “A (40 mmol/L Tris-HCl, pH7.5, 15 mmol/L benzamidine, 15 mmol/L 2-mercaptoethanol, 1 μg/mL Pepstatin A, 1 μg/mL Leupeptin, 5 mmol/L EDTA)”

[3] = test system: partial urethra obstruction model in guinea pigs; experiment: Dysuria pathological model: partial urethra obstruction model, cystometry; assay type: in vivo, Hartley female guinea pigs; conditions: guinea pig, i.v., 1 mg/kg
Experimental: Three-four weeks old Hartley female guinea pigs (Japan SLC, Inc.) were given celiotomy under anesthesia with pentobarbital (30 mg/kg i.p.) and in their urethra to the peripheral side by 1-2 mm from the bladder neck, each a polyethylene tube of 1.4 mm in width and 2.0 mm in inner diameter was placed. After closing the wound, the guinea pigs were bred for at least 3 weeks to produce partial urethra obstruction model in guinea pigs in which occurrence of intravesical pressure rise not accompanied by micturition (uninhibited contraction) and residual urine were observed.
The model was catheterized under anesthesia with urethane (1 g/kg i.p.) at the apex of urinary bladder and right jugular vein for cystometrography and intravenous administration, respectively. The other end of the bladder catheter was connected to a pressure transducer and infusion pump via a three way stop-cock, and physiological saline was continuously infused into the bladder through the infusion pump at a rate of 0.4 mL/min to induce micturition reflex. Immediately after the micturition reflex was induced, infusion of physiological saline into the bladder was stopped. The intravesical pressure at the time the micturition reflex was induced was measured with the pressure transducer, and the obtained cystometrogram was recorded with pen recorder. The urine voided was collected with disposable type weighing dish and its weight was measured. Further the physiological saline remained in the bladder was sucked with syringe via the bladder catheter and the residual urine volume was measured. The operations of suspending the infusion of physiological saline upon induction of micturition reflex, and about 1 minute thereafter resuming the infusion of physiological saline to induce micturition reflex were repeated plural times (generally 4 times) to stabilize the micturition reflex.
After stabilizing the micturition reflex, a compound solution (prepared by dissolving the compound or methanesulfonic acid salt thereof in DMSO and diluting it with physiological saline or distilled water) or physiological saline was administered into the vein at a volume of 10 mL/kg over 4 minutes, and simultaneously the above-described micturition reflex operations were repeated until 30 minutes passed after initiation of the administration, while measuring the intravesical pressure and the volumes of micturition and residual urine. Also the frequency of uninhibited contraction occurrence during the above-described operations was recorded.

[4] = Tables A and C, read-out: Inhibiting Activity (IC50 value) PDE9
[5] = Table B, read-out: Inhibiting Activity IC50 PDE9

Compound: 2-(3-Chloro-4-fluorobenzyl)-5-methyl-4-oxo-3,4-dihydrothieno-[2,3-d]pyrimidine-6-carboxylic acid [A-10]
- pIC50 [1, 4]: 7.42
- pIC50 [2]: 5.47

Compound: 2-(5-Chlorothiophen-2-ylmethyl)-5-methyl-4-oxo-3,4-dihydrothieno[2,3-d]pyrimidine-6-carboxylic acid [A-3]
- pIC50 [1, 4]: 7.47
- pIC50 [2]: 5.16

Compound: Cc1c(C(=O)O)sc2nc(Cc3ccsc3)[nH]c(=O)c12 [A-1, 5-Methyl-4-oxo-2-(thiophen-3-ylmethyl)-3,4-dihydrothieno[2,3-d]-pyrimidine-6-carboxylic acid]
- pIC50 [1, 4]: 7.66
- pIC50 [2]: 4.75

Compound: Cc1c(C(=O)O)sc2nc(Cc3cccc(Br)c3)[nH]c(=O)c12 [A-5, 2-(3-Bromobenzyl)-5-methyl-4-oxo-3,4-dihydrothieno[2,3-d]-pyrimidine-6-carboxylic acid]
- pIC50 [1, 4]: 7.62
- pIC50 [2]: 5.35

Compound: Cc1c(C(=O)O)sc2nc(Cc3cccc(C(F)(F)F)c3)[nH]c(=O)c12 [A-6, 5-Methyl-4-oxo-2-(3-trifluoromethylbenzyl)-3,4-dihydrothieno[2,3-d]pyrimidine-6-carboxylic acid]
- pIC50 [1, 4]: 7.47
- pIC50 [2]: 4.65

Compound: Cc1c(C(=O)O)sc2nc(Cc3ccccc3SC(F)(F)F)[nH]c(=O)c12 [A-8, 5-Methyl-4-oxo-2-(2-trifluoromethylthiobenzyl)-3,4-dihydrothieno[2,3-d]pyrimidine-6-carboxylic acid]
- pIC50 [1, 4]: 7.34
- pIC50 [2]: 4.70

Compound: Cc1c(C(=O)O)sc2nc(Cc3ccc(F)c(C(F)(F)F)c3)[nH]c(=O)c12 [A-9, 2-(4-Fluoro-3-trifluoromethylbenzyl)-5-methyl-4-oxo-3,4-dihydrothieno[2,3-d]pyrimidine-6-carboxylic acid]
- pIC50 [1, 4]: 7.36
- pIC50 [2]: 4.72

Compound: Cc1c(C(=O)O)sc2nc(Cc3cc(Cl)ccc3F)[nH]c(=O)c12 [A-11, 2-(5-Chloro-2-fluorobenzyl)-5-methyl-4-oxo-3,4-dihydrothieno-[2,3-d]pyrimidine-6-carboxylic acid]
- pIC50 [1, 4]: 7.66
- pIC50 [2]: 5.24

Compound: Cc1c(C(=O)O)sc2nc(Cc3cc(F)ccc3F)[nH]c(=O)c12 [A-12, 2-(2,5-Difluorobenzyl)-5-methyl-4-oxo-3,4-dihydrothieno-[2,3-d]pyrimidine-6-carboxylic acid]
- pIC50 [1, 4]: 7.38
- pIC50 [2]: 4.70

Compound: Cc1c(C(=O)O)sc2nc(CC3=CCCC3)[nH]c(=O)c12 [A-13, 2-(Cyclopent-1-enylmethyl)-5-methyl-4-oxo-3,4-dihydrothieno-[2,3-d]pyrimidine-6-carboxylic acid]
- pIC50 [1, 4]: 7.55
- pIC50 [2]: 5.07

Compound: Cc1c(C(=O)O)sc2nc(CC3=CCCCC3)[nH]c(=O)c12 [A-14, 2-(Cyclohex-1-enylmethyl)-5-methyl-4-oxo-3,4-dihydrothieno-[2,3-d]pyrimidine-6-carboxylic acid]
- pIC50 [1, 4]: 7.27
- pIC50 [2]: 5.79

Compound: O=C(O)c1cc2c(=O)[nH]c(Cc3ccsc3)nc2s1 [A-15, 4-Oxo-2-(thiophen-3-ylmethyl)-3,4-dihydrothieno-[2,3-d]pyrimidine-6-carboxylic acid]
- pIC50 [1, 4]: 7.85
- pIC50 [2]: 4.46

Compound: O=C(O)c1cc2c(=O)[nH]c(Cc3cccs3)nc2s1 [A-16, 4-Oxo-2-(thiophen-2-ylmethyl)-3,4-dihydrothieno[2,3-d]-pyrimidine-6-carboxylic acid]
- pIC50 [1, 4]: 7.82
- pIC50 [2]: 4.38

Compound: O=C(O)c1cc2c(=O)[nH]c(Cc3ccccc3)nc2s1 [A-17, 2-Benzyl-4-oxo-3,4-dihydrothieno[2,3-d]pyrimidine-6-carboxylic acid]
- pIC50 [1, 4]: 7.72
- pIC50 [2]: 4.46

Compound: O=C(O)c1cc2c(=O)[nH]c(Cc3cccc(Cl)c3)nc2s1 [A-18, 2-(3-Chlorobenzyl)-4-oxo-3,4-dihydrothieno[2,3-d]-pyrimidine-6-carboxylic acid]
- pIC50 [1, 4]: 8.00
- pIC50 [2]: 4.80

Compound: O=C(O)c1cc2c(=O)[nH]c(Cc3cccc(C(F)(F)F)c3)nc2s1 [A-19, 4-Oxo-2-(3-trifluoromethylbenzyl)-3,4-dihydrothieno-[2,3-d]pyrimidine-6-carboxylic acid]
- pIC50 [1, 4]: 7.82
- pIC50 [2]: 4.52

Compound: O=C(O)c1cc2c(=O)[nH]c(Cc3ccc(Cl)c(Cl)c3)nc2s1 [A-20, 2-(3,4-Dichlorobenzyl)-4-oxo-3,4-dihydrothieno[2,3-d]-pyrimidine-6-carboxylic acid]
- pIC50 [1, 4]: 8.05
- pIC50 [2]: 5.64

Compound: Cc1c(C(=O)O)sc2nc(Cc3ccsc3)[nH]c(=S)c12 [A-22, 5-Methyl-2-(thiophen-3-ylmethyl)-4-thioxo-3,4-dihydrothieno-[2,3-d]pyrimidine-6-carboxylic acid]
- pIC50 [1, 4]: 8.05
- pIC50 [2]: 5.79

Compound: Cc1c(C(=O)O)sc2nc(Cc3cccs3)[nH]c(=S)c12 [A-23, 5-Methyl-2-(thiophen-2-ylmethyl)-4-thioxo-3,4-dihydrothieno-[2,3-d]pyrimidine-6-carboxylic acid]
- pIC50 [1, 4]: 7.51
- pIC50 [2]: 5.81

Compound: COc1ccc(Cc2nc3cc(C(=O)O)ccc3c(=O)[nH]2)cc1OC [B-3, 2-(3,4-Dimethoxybenzyl)-4-oxo-3,4-dihydroquinazoline-7-carboxylic acid]
- Inhibiting Activity inhibition ratio at 1 μM PDE9 ([1]; Table B): inhibition ratio = 11%

Compound: COc1ccccc1Cc1nc2cc(C(=O)O)ccc2c(=O)[nH]1 [B-4, 2-(2-Methoxybenzyl)-4-oxo-3,4-dihydroquinazoline-7-carboxylic acid]
- pIC50 [1, 5]: 5.89

Compound: COc1cccc(Cc2nc3cc(C(=O)O)ccc3c(=O)[nH]2)c1 [B-5, 2-(3-Methoxybenzyl)-4-oxo-3,4-dihydroquinazoline-7-carboxylic acid]
- Inhibiting Activity inhibition ratio at 1 μM PDE9 ([1]; Table B): inhibition ratio = 41%

Compound: O=C(O)c1ccc2c(=O)[nH]c(Cc3ccccn3)nc2c1 [B-6, 4-Oxo-2-(2-pyridylmethyl)-3,4-dihydroquinazoline-7-carboxylic acid]
- pIC50 [1, 5]: 5.89

Compound: O=C(O)c1ccc2c(=O)[nH]c(Cc3cccnc3)nc2c1 [B-7, 4-Oxo-2-(3-pyridylmethyl)-3,4-dihydroquinazoline-7-carboxylic acid]
- Inhibiting Activity inhibition ratio at 1 μM PDE9 ([1]; Table B): inhibition ratio = 30%

Compound: O=C(O)c1ccc2c(=O)[nH]c(Cc3cccs3)nc2c1 [B-8, 4-Oxo-2-(2-thienylmethyl)-3,4-dihydroquinazoline-7-carboxylic acid]
- pIC50 [1, 5]: 7.03

Compound: Cn1c(Cc2cccc(Cl)c2)nc2cc(C(=O)O)ccc2c1=O [B-9, 2-(3-Chlorobenzyl)-3-methyl-4-oxo-3,4-dihydroquinazoline-7-carboxylic acid]
- pIC50 [1, 5]: 5.33

Compound: CC(C)c1ncc2c(=O)[nH]c3cc(Cl)ccc3n12 [C-1 (methanesulfonate)]
- Frequency of occurrence of uninhibited contraction volume change [3]: +0.77 times/min
- Residual urine volume volume change [3]: 0.22 mL
